Measurements as given in PMC9395504 (Investigational New Drugs, 2022).
Read-outs that look alike come from different tables or passages of the source. Marks after values point to notes of the source that are not given here. Blank lines part the entries; values can stand above or below the molecule they belong to.

Columns and labels:
[1] = Safety: adverse events by NCI-CTCAE v4.0, phase 1 study Part 1; format: in vivo, human
Description: We defined the dose-limiting toxicity (DLT) period as the first 28 days of each dose-escalation cohort’s treatment cycle (DLT window). […] Non-hematologic DLTs included grade ≥3 nausea, vomiting, or diarrhea enduring >48 hours despite standard medical management, grade 3 fatigue persisting >7 days or grade 4 fatigue, any grade ≥3 metabolic laboratory abnormalities that are not controlled within 48 hours by standard medical management.

[2] = Plasma pharmacokinetics of trametinib and dabrafenib at steady state (LC-MS/MS, noncompartmental); format: in vivo, human; settings: for Cmax / AUC(0-t) / Tmax: human, plasma, oral
Description: We, therefore, collected samples on these days to perform dabrafenib and trametinib PK analysis.
We determined plasma concentrations of trametinib, dabrafenib, and hydroxy- and desmethyl-dabrafenib metabolites with a validated assay using liquid-liquid extraction of samples spiked with the stable isotope internal standards for each analyte followed by analysis using LC-MS/MS detection. The validated concentration ranges for quantitation were 0.250 to 250 ng/mL for trametinib and 1.00 to 1,000 ng/mL for dabrafenib and its metabolites. We calculated concentrations using a linear regression calibration model with a 1/x^2 weighting factor.
The following PK parameters were estimated: maximum observed plasma concentration (Cmax), time to reach Cmax (tmax), area-under-the-plasma concentration-time curve (AUC), terminal phase half-life (t1/2,z), and apparent total body clearance (CL/F). We performed noncompartmental analyses for PK parameter estimation using Phoenix® WinNonlin® version 6.4 or later software (Certara™, Princeton, NJ). […] We prepared descriptive statistics, tables, and graphs using Phoenix® WinNonlin® and Prism version 9.1.1 (GraphPad Software, San Diego, CA).

[3] = trametinib 2 mg QD, Cycle 2 Day 7 with AMG 232, Arm 2 cohort 1 (AMG 232 120 mg), geometric mean (CV%)
[4] = trametinib 2 mg QD, Cycle 2 Day 7 with AMG 232, Arm 2 cohort 3 (AMG 232 240 mg), geometric mean (CV%)

Effect of AMG 232 co-administration on trametinib PK ([2]; cycle 2 day 7 vs cycle 1 day 21): does not appear to affect
Cmax ([2]; 2 mg, trametinib 2 mg QD, Cycle 1 Day 21 without AMG 232, Arm 2 cohort 1 (AMG 232 120 mg), geometric mean (CV%)): 21.5 ng/mL
AUC(0-t) ([2]; 2 mg, trametinib 2 mg QD, Cycle 1 Day 21 without AMG 232, Arm 2 cohort 1 (AMG 232 120 mg), geometric mean (CV%), read-out: AUC24hr): 370 ng·h/mL
Cmax ([2]; 2 mg, trametinib 2 mg QD, Cycle 1 Day 21 without AMG 232, Arm 2 cohort 2 (AMG 232 180 mg), geometric mean (CV%)): 25.3 ng/mL
Tmax ([2]; 2 mg, trametinib 2 mg QD, Cycle 1 Day 21 without AMG 232, Arm 2 cohort 2 (AMG 232 180 mg), median (min-max), read-out: tmax): 4 h
Cmax ([2]; 2 mg, trametinib 2 mg QD, Cycle 1 Day 21 without AMG 232, Arm 2 cohort 3 (AMG 232 240 mg), geometric mean (CV%)): 22.1 ng/mL
Tmax ([2]; 2 mg, trametinib 2 mg QD, Cycle 1 Day 21 without AMG 232, Arm 2 cohort 3 (AMG 232 240 mg), median (min-max), read-out: tmax): 2 h
Cmax ([2]; trametinib 2 mg QD, Cycle 1 Day 21 without AMG 232, Arm 1 cohort 1 (AMG 232 120 mg), geometric mean (CV%)): 20.1 ng/mL
AUC(0-t) ([2]; trametinib 2 mg QD, Cycle 1 Day 21 without AMG 232, Arm 1 cohort 1 (AMG 232 120 mg), geometric mean (CV%), read-out: AUC24hr): 326 ng·h/mL
Tmax ([2]; trametinib 2 mg QD, Cycle 1 Day 21 without AMG 232, Arm 1 cohort 1 (AMG 232 120 mg), median (min-max), read-out: tmax): 2 h
Cmax ([2]; trametinib 2 mg QD, Cycle 1 Day 21 without AMG 232, Arm 1 cohort 2 (AMG 232 180 mg), geometric mean (CV%)): 24.1 ng/mL
AUC(0-t) ([2]; trametinib 2 mg QD, Cycle 1 Day 21 without AMG 232, Arm 1 cohort 2 (AMG 232 180 mg), geometric mean (CV%), read-out: AUC24hr): 362 ng·h/mL
Tmax ([2]; trametinib 2 mg QD, Cycle 1 Day 21 without AMG 232, Arm 1 cohort 2 (AMG 232 180 mg), median (min-max), read-out: tmax): 2 h
Cmax ([2]; trametinib 2 mg QD, Cycle 2 Day 7 with AMG 232, Arm 1 cohort 1 (AMG 232 120 mg), geometric mean (CV%)): 22.4 ng/mL
AUC(0-t) ([2]; trametinib 2 mg QD, Cycle 2 Day 7 with AMG 232, Arm 1 cohort 1 (AMG 232 120 mg), geometric mean (CV%), read-out: AUC24hr): 338 ng·h/mL
Tmax ([2]; trametinib 2 mg QD, Cycle 2 Day 7 with AMG 232, Arm 1 cohort 1 (AMG 232 120 mg), median (min-max), read-out: tmax): 2 h
Cmax ([2]; trametinib 2 mg QD, Cycle 2 Day 7 with AMG 232, Arm 1 cohort 2 (AMG 232 180 mg), geometric mean (CV%)): 25.9 ng/mL
AUC(0-t) ([2]; trametinib 2 mg QD, Cycle 2 Day 7 with AMG 232, Arm 1 cohort 2 (AMG 232 180 mg), geometric mean (CV%), read-out: AUC24hr): 402 ng·h/mL
Tmax ([2]; trametinib 2 mg QD, Cycle 2 Day 7 with AMG 232, Arm 1 cohort 2 (AMG 232 180 mg), median (min-max), read-out: tmax): 2 h
Cmax [2, 3]: 24.8 ng/mL
Tmax ([2]; trametinib 2 mg QD, Cycle 2 Day 7 with AMG 232, Arm 2 cohort 1 (AMG 232 120 mg), median (min-max), read-out: tmax): 2 h
Cmax ([2]; trametinib 2 mg QD, Cycle 2 Day 7 with AMG 232, Arm 2 cohort 2 (AMG 232 180 mg), n = 1): 21.8 ng/mL
AUC(0-t) ([2]; trametinib 2 mg QD, Cycle 2 Day 7 with AMG 232, Arm 2 cohort 2 (AMG 232 180 mg), n = 1, read-out: AUC24hr): 463 ng·h/mL
Tmax ([2]; trametinib 2 mg QD, Cycle 2 Day 7 with AMG 232, Arm 2 cohort 2 (AMG 232 180 mg), n = 1, read-out: tmax): 2 h
Cmax [2, 4]: 24.3 ng/mL
Tmax ([2]; trametinib 2 mg QD, Cycle 2 Day 7 with AMG 232, Arm 2 cohort 3 (AMG 232 240 mg), median (min-max), read-out: tmax): 2 h
Tmax ([2]; trametinib, cycle 2, day 7, with AMG 232 co-administration, across dose cohorts, read-out: median tmax): 1 to 3 h
AUC24hr ([2]; trametinib 2 mg QD, Cycle 1 Day 21 without AMG 232, Arm 2 cohort 2 (AMG 232 180 mg), geometric mean (CV%)): 471 (26.7%) n = 5 hr•ng/mL
AUC24hr ([2]; trametinib 2 mg QD, Cycle 1 Day 21 without AMG 232, Arm 2 cohort 3 (AMG 232 240 mg), geometric mean (CV%)): 385 (22.9%) n = 6 hr•ng/mL
AUC24hr [2, 3]: 468 (23.5%)^a n = 3 hr•ng/mL
AUC24hr [2, 4]: 351 (41.9%)^a n = 4 hr•ng/mL
median tmax ([2]; trametinib, cycle 1, day 21, without AMG 232 co-administration, across dose cohorts): 2 h
SMILES: CC(=O)Nc1cccc(-n2c(=O)n(C3CC3)c(=O)c3c(Nc4ccc(I)cc4F)n(C)c(=O)c(C)c32)c1 [trametinib]
Patients discontinuing trametinib due to AEs ([1]; all 31 patients, n=6): 19%

Effect of AMG 232 on dabrafenib exposures ([2]; dabrafenib and trametinib with and without AMG 232): not significantly altered
Cmax ([2]; 150 mg BID, dabrafenib 150 mg BID, Cycle 1 Day 21, T + D without AMG 232, Arm 1 cohort 1 (AMG 232 120 mg), geometric mean (CV%)): 1740 ng/mL
AUC(0-t) ([2]; 150 mg BID, dabrafenib 150 mg BID, Cycle 1 Day 21, T + D without AMG 232, Arm 1 cohort 1 (AMG 232 120 mg), geometric mean (CV%), read-out: AUC6hr): 4840 ng·h/mL
Cmax ([2]; 150 mg BID, dabrafenib 150 mg BID, Cycle 1 Day 21, T + D without AMG 232, Arm 1 cohort 2 (AMG 232 180 mg), geometric mean (CV%)): 3310 ng/mL
AUC(0-t) ([2]; 150 mg BID, dabrafenib 150 mg BID, Cycle 1 Day 21, T + D without AMG 232, Arm 1 cohort 2 (AMG 232 180 mg), geometric mean (CV%), read-out: AUC6hr): 7450 ng·h/mL
Tmax ([2]; 150 mg BID, dabrafenib 150 mg BID, Cycle 1 Day 21, T + D without AMG 232, Arm 1 cohort 2 (AMG 232 180 mg), median (min-max), read-out: tmax): 1 h
Tmax ([2]; dabrafenib 150 mg BID, Cycle 1 Day 21, T + D without AMG 232, Arm 1 cohort 1 (AMG 232 120 mg), median (min-max), read-out: tmax): 1 h
Cmax ([2]; dabrafenib 150 mg BID, Cycle 2 Day 7, T + D with AMG 232, Arm 1 cohort 1 (AMG 232 120 mg), geometric mean (CV%)): 1200 ng/mL
AUC(0-t) ([2]; dabrafenib 150 mg BID, Cycle 2 Day 7, T + D with AMG 232, Arm 1 cohort 1 (AMG 232 120 mg), geometric mean (CV%), read-out: AUC6hr): 3640 ng·h/mL
Cmax ([2]; dabrafenib 150 mg BID, Cycle 2 Day 7, T + D with AMG 232, Arm 1 cohort 2 (AMG 232 180 mg), geometric mean (CV%)): 1750 ng/mL
AUC(0-t) ([2]; dabrafenib 150 mg BID, Cycle 2 Day 7, T + D with AMG 232, Arm 1 cohort 2 (AMG 232 180 mg), geometric mean (CV%), read-out: AUC6hr): 4910 ng·h/mL
Tmax ([2]; dabrafenib, cycle 1, day 21, without AMG 232 co-administration, read-out: median tmax): 1 h
SMILES: CC(C)(C)c1nc(-c2cccc(NS(=O)(=O)c3c(F)cccc3F)c2F)c(-c2ccnc(N)n2)s1 [dabrafenib]
Patients discontinuing dabrafenib due to AEs ([1]; 10 patients in Arm 1, n=2): 20%
